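All cell lines were grown in 96-well plates and treated with compound for 48 hours. The concentration for 50% growth inhibition is given as GI50. TGI is the concentration that stops growth completely.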
How the values were obtained:
Test in all cases: NCI tumour cell line growth inhibition, 48 h
[1] = system: 786-0 renal
[2] = system: A498 renal
[3] = system: HCC-2998 colon
[4] = system: HT29 colon
[5] = system: MOLT-4 leukemia
[6] = system: SW-620 colon
[7] = system: U251 CNS
[8] = system: SR leukemia
[9] = system: RPMI-8226 leukemia
[10] = system: RXF 393 renal

SMILES	GI50 [1] [µM]	TGI [1] [µM]	GI50 [2] [µM]	TGI [2] [µM]	GI50 [3] [µM]	TGI [3] [µM]	GI50 [4] [µM]	TGI [4] [µM]	GI50 [5] [µM]	TGI [5] [µM]	GI50 [6] [µM]	TGI [6] [µM]	GI50 [7] [µM]	TGI [7] [µM]	GI50 [8] [µM]	TGI [8] [µM]	TGI [9] [µM]	TGI [10] [µM]	GI50 [9] [µM]	GI50 [10] [µM]
O=C(/C=C/C=C/c1c(C2CC2)nc2ccccc2c1-c1ccc(F)cc1)c1cccs1	2.76	> 100	1.67	3.58	1.99	4.95	1.49	5.47	1	> 100	1.67	11.8	1.9	5.4						
CCCCCCCCCCCCCCCC[N+](C)(CCO)Cc1cnc[nH]1 (stereo not given)	0.852	2.84	2.93	12.2	1.14	2.73	0.382	12.3			0.978	13.7			1.97	> 100				
COC(=O)NC1(NC(=O)OC)NC(=O)c2cc(OC)c(OC)c(OC)c2N1		> 100		> 100		> 100		> 100		> 100		> 100		> 100		> 100				
Cc1ccc(NC(=O)C(=O)CC(=O)C2CCOC2=O)c(C)c1 (stereo not given)		> 100		> 100		> 100		> 100				> 100		> 100			> 100	> 100		
Clc1ccc(C2=Nn3c(nnc3-c3cc(Cl)cc(Cl)c3Cl)SC2)cc1	17.1	38	31.1	> 100			9.26	> 100	38.8	> 100	17.4	> 100	12.7	28.3	3.1	7.34	> 100		44.3	
CC1=C(C(=O)Nc2cc(=O)n(C)c(=O)n2C)C(c2ccc([N+](=O)[O-])cc2)C(C(=O)Nc2cc(=O)n(C)c(=O)n2C)=C(C)N1		> 100		> 100		> 100		> 100		> 100		> 100		> 100			> 100	> 100		
COc1cc2c3c(n(CCCNCCCNCCCNCCCN)c(=O)c2cc1OC)-c1cc2c(cc1C3=O)OCO2	2.31	7.68	3.14	12.1			2.28	16.4	0.369	2.57	2.18	13.9	1.33	3.81				4.46		1.7
CC(=O)OC1CC2Oc3ccc(C)cc3C(C)(O2)C1=O (stereo not given)		> 100						> 100		> 100		> 100		> 100			> 100	> 100		
O=C(Cc1nc2ccccc2s1)C(=O)Nc1cccc(Cl)c1		> 100		> 100		> 100		> 100				> 100		> 100			> 100	> 100		
COc1ccc(C(=O)C(c2ccc(OC)cc2)C2OC(=O)C(Cl)=C2Cl)cc1 (stereo not given)		> 100				> 100		> 100		> 100		> 100		> 100		> 100	> 100	> 100		
CN(/N=C/c1cccc2cccnc12)c1ccc([N+](=O)[O-])cc1		> 100		> 100		> 100		> 100		> 100		> 100					> 100	> 100		
CC(=O)O[C@@H]1[C@@H](O)C2=C3[C@]4(C)[C@@H]1C(C)(C)C(=O)C[C@@H]4[C@]3(O)[C@H](OC(C)=O)[C@@]1(C[C@@H]1C)C2=O		32.4		45.8		32.7				72.4		42.8		40.6			98.4			
O=c1cc(-c2ccccc2)oc2cc(O)cc(O)c12		60.1				38.6		> 100		61.1				87.5		65.6	41.7			
CC#C/C(=N\OC[C@H]1COCCN1)c1ccc2ncnc(Nc3ccc(OCc4cccc(F)c4)c(Cl)c3)c2c1	1.52	3.07	2.07	7.7	1.84	3.41	1.62	3.09	1.8	3.91			1.71	3.22	1.68	5.34	3.81		1.66	
Cc1ccc(C(=O)Nc2ccc(S(=O)(=O)O)c3cc(S(=O)(=O)O)cc(S(=O)(=O)O)c23)cc1NC(=S)Nc1cc(C(=O)Nc2ccc(S(=O)(=O)O)c3cc(S(=O)(=O)O)cc(S(=O)(=O)O)c23)ccc1C		> 75		> 75		> 75		> 75		> 75		> 75		> 75		> 75	> 75			
CN(C)CCNC(=O)c1cccc2c(Nc3ccc(S(N)(=O)=O)cc3)c3ccccc3nc12		4.92		7.08		6.92		8.35		> 100		1.96		4.69		> 100	77.2			
COc1cc(O)c2c(c1)C(=O)C=C(Cl)C2=O		> 100		> 100		> 100		> 100		> 100		> 100		> 100			> 100	> 100		
CN(C)CCSc1cccc(-c2cc(-c3cccc(SCCN(C)C)c3)nc(SCCN(C)C)n2)c1		20.9				7.76		3.4		4.66		3.95		3.54		4.49		2.8		
CC1(C)OB(O)OC1(C)C		> 100		> 100		> 100		> 100		> 100		> 100					> 100	> 100		
COC1=CC23CCCN2CCc2cc4c(cc2C3C1O)OCO4 (stereo not given)		> 100		> 100		> 100		> 100		> 100		> 100		> 100						
O=C(/C=N/O)Nc1cc(Cl)c(Cl)cc1Cl		> 100		55.5		> 100		> 100		47.9		> 100		> 100			88.8	95.3		
CC(=O)C1C(=O)NC(=O)C1=O (stereo not given)		> 100		> 100		> 100		> 100				> 100		> 100			> 100	> 100		
